Tests used:
Assay type in all cases: cell-based
[1] = tested on: SU-DHL-1 cells; assay: CellTiter-Glo cell viability, SU-DHL-1
Experimental: Compound-mediated viability effect on MOLM-16 and SU-HDL-1 cells was quantitatively determined using the CellTiter-Glo® Luminescent Cell Viability Assay kit from Promega (Catalog number G7572) following manufacturer's recommended procedures.
Day 0: 60 nL of compounds/DMSO were stamped to the cell plate as on the recommended platemap. Compound precipitation was observed. Cells were centrifuged at 800 rpm for 5 min, suspended with culture medium, and counted with Countess (Invitrogen). The cell density was adjusted to the recommend concentration. 30 μL of cell solution (2000 cells/well) was added to the assay plate according to the platemap. 30 μL of media was added to column 2 and column 23 as on the platemap. The final concentration of the compounds except for the reference compound Paclitaxel was from 10 μM, 3-fold dilution and 11 dose (Paclitaxel started at 500 nM). The final DMSO concentration was 0.2%. The assay plate was incubated at 37° C., 5% CO2 for 4 days.
Day 4: The assay plate was equilibrated to RT for ˜10 minutes. Compound precipitation was observed (96h). To determine cell viability, 30 μL of CellTiter Glo reagent was added to each well and the assay plate was centrifuged at 1000 rpm for 30 second, incubated at room temperature for 10 min, and analyzed by detecting the luminescence using a multimode plate reader (EnVision 2105, PerkinElmer). The data was then analyzed by software Prism 7.0 from GraphPad and the dose response curves were fit using a three-parameter logistic equation to calculate EC50.

[2] = target: STAT3 (Homo sapiens, UniProt P40763); assay: STAT3 HiBiT degradation assay in transfected A549 cells; design: expressed in transfected cells; host or cells: A549; settings: A549, 24 h; read-out: STAT3 HiBiT A549 degradation 24 h: Average external-Abs DC50
How it was run: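 Degradation read as HiBiT-tagged STAT3 luminescence (Nano-Glo lytic reagent, 10 min, room temperature) following 24 h compound treatment of transfected A549 cells at 3-fold, 10 points. Percent remaining signal computed against controls and fitted with a four-parameter logistic; DC50 reported as letter bins (A <0.01 to D >1.0 µM).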

[3] = tested on: KARPAS-299 cells; assay: CellTiter-Glo cell viability, KARPAS-299
[4] = tested on: SUP-M2 cells; assay: CellTiter-Glo cell viability, SUP-M2
[5] = tested on: SU-DHL-1 cells; assay: Wash-out study in SU-DHL-1 cells; settings: 1 uM compound for 24 and 48 hr, then wash-out; FIGS. 10 and 18
Experimental: I-103 and I-174 were tested in the wash-out protocol.
• Seed cell suspension in T75 flasks and treat with 0.1% DMSO and 1 uM compound for 24 and 48 hr. Day 0 • Collect cell suspension from the flasks in conical tubes after 24 and 48 hr, spin down at 1,000 rpm for 5 min. • Remove supernatant. Wash with PBS, spin down at 1,000 rpm for 5 min, repeat PBS wash one more time. • Seed the cells at 2,000 cells per well in 384-well plates for growth inhibition measurement via CellTiterGlo (CTG) and 10,000 cells per well in 96-well plates for STAT3 levels via MSD. • Measure T0 for CTG and collect pellets to measure levels of STAT3 by MSD Day 1-4 • Measure CTG every day for 4 days post wash-out. • Collect pellets and measure levels of STAT3 by MSD every day for 4 days post wash-out. Growth inhibition was normalized to T0 and graphed as % control.

[6] = tested on: SOCS3; assay: STAT3 RT-qPCR assay, SOCS3 mRNA; settings: SU-DHL-1 cells
Experimental: SU-DHL-1 cells were treated with compounds for a designed time. 0.3-0.6 mL lysis buffer with 2-mercaptoethanol was added to the collected cell pellet or monolayer cells. The cells were vortexed until the cell was dispersed and the cells appear lysed. One volume of 70% ethanol was added to each volume of cell homogenate and vortex. 700 μL of the sample was transferred to the spin cartridge and centrifuged at 12000 g for 15s at RT. The flow-through was discarded and the process repeated until the entire samples had been processed. 700 ul wash buffer I was added to the spin cartridge and centrifuged at 12000 g for 15s at RT and the flow-through was discarded. 500 μL wash buffer II with ethanol was added to the spin cartridge and centrifuged at 12000 g for 15s at RT and the flow-through was discarded. The process was then repeated. The spin cartridge was centrifuged at 12000 g for 2 min to dry the membrane with bound RNA. 30-100 μL RNase-free water was added to the center of the spin cartridge and incubated for 1 min at RT. […] The concentration of the RNA was quantitated using Nano-Drop. cDNA was formed from the RNA by reverse transcription and qPCR of the cDNA with primer of the gene of interest and housekeeping gene was preformed using the volumes below: […]

Chain of STAT3 (P40763 whole entry): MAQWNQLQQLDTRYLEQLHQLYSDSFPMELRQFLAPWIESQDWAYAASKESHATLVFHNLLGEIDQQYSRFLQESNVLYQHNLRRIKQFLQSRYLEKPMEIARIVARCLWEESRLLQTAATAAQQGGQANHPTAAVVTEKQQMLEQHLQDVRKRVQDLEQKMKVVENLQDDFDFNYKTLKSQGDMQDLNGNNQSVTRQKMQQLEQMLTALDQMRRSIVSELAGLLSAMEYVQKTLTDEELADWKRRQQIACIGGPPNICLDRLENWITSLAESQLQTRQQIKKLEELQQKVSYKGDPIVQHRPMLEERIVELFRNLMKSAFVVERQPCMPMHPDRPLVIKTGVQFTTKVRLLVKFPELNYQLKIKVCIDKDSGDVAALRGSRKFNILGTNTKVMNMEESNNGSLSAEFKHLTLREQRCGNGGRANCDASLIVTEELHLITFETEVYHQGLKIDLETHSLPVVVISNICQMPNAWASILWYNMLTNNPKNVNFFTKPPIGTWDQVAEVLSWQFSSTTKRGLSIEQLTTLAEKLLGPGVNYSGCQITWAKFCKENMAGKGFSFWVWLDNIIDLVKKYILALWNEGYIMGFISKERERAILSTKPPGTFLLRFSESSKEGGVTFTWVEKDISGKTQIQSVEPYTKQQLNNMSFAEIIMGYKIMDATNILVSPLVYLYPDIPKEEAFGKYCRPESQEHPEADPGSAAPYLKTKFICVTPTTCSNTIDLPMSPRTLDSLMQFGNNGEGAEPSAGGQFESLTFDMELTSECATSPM

Cn1c(=O)n(C2CCC(=O)NC2=O)c2ccc(C[C@H]3CC[C@@H](CC(=O)N4CC[C@H]5CC[C@@H](C(=O)N[C@@H](CCC(N)=O)C(=O)NC(c6ccccc6)c6ccccc6)N5C(=O)[C@@H](NC(=O)c5cc6cc(C(=O)P(=O)(O)O)ccc6[nH]5)C4)CC3)cc21 (stereo partly drawn) [Compound I-174, 2-[[(5S,8S,10aR)-8-[[(1S)-3-carbamoyl-1-(diphenylmethylcarbamoyl)propyl]carbamoyl]-6-oxo-3-[2-[(1s,4s)-4-[[1-(2,6-dioxopiperidin-3-yl)-3-methyl-2-oxo-1,3-benzodiazol-5-yl]methyl]cyclohexyl]acetyl]-octahydropyrrolo[1,2-a][1,5]diazocin-5-yl]carbamoyl]-1H-indole-5-carbonylphosphonic acid]
IC50 ([1]; Homo sapiens, 96 h, SU-DHL-1, ALCL (ALK+), Day 4, read-out: CTG, IC50 μM, Day 4): 0.015 µM
CTG (% Max inh), Day 4 ([1]; SU-DHL-1, ALCL (ALK+), Day 4): (>95) %
cell proliferation ([1]; SU-DHL-1, FIG. 5B, FIG. 16): inhibit
DC50 [2]: 10 to 100 nM
IC50 ([3]; Homo sapiens, 96 h, KARPAS-299, ALCL (ALK+), Day 4, read-out: CTG, IC50 μM, Day 4): 0.084 µM
CTG (% Max inh), Day 4 ([3]; KARPAS-299, ALCL (ALK+), Day 4): (90) %
cell proliferation ([3]; KARPAS-299, FIG. 16): inhibit
IC50 ([4]; 96 h, SUP-M2, ALCL (ALK+), Day 4, read-out: CTG, IC50 μM, Day 4): 0.086 µM
CTG (% Max inh), Day 4 ([4]; SUP-M2, ALCL (ALK+), Day 4): (95) %
cell proliferation ([4]; SUP-M2, FIG. 16): inhibit
viability of SU-DHL-1 cells after wash-out [5]: profound effects on the viability of SU-DHL-1 cells
IC50 ([6]; Homo sapiens, 24 hr): 0.022 µM
STAT3-dependent gene expression of SOCS3 ([6]; FIG. 5A, FIG. 15): downregulates

Source: patent publication US12077555B2, “STAT degraders and uses thereof” (Kymera Therapeutics, Inc., priority 2019, dated 2024)
